Laboratory results as given in patent publication US9120775B2, “Viral polymerase inhibitors” (Biota Scientific Management Pty Ltd, priority 2012, dated 2015).
Converted amounts (≈) assume the structure as drawn. Like-named read-outs stand apart in the source and are kept apart here.

Columns and labels:
[1] = Aqueous solubility (laser nephelometry); type: physicochemical; details: aqueous assay buffer pH 6.5 with 1% DMSO, aqueous buffer, kinetic from dmso stock, pH 6.5, 1% DMSO, 30 minute incubation at 25° C.
Description: Test compounds prepared in DMSO were screened in duplicate over a range of concentrations (1.6-100 ug/mL) in different aqueous media (for example a pH6.5 buffers which are relevant to the stomach and upper regions of the small intestine and therefore important when predicting the amount of drug likely to be in solution following oral administration). Test compounds were serially diluted in 100% DMSO ranging from 10-0.16 mg/mL. These titrated DMSO stocks were then further diluted 1:100 with assay buffer and added to test plates (UV Star Griener 384 well plates), maintaining the DMSO concentration at 1%.

1b (BK) NS5BΔ21 = molecular target: T1, 1b (BK) NS5BΔ21 (Hepatitis C virus genotype 1b, UniProt P26663); assay: HCV polymerase inhibition assay; type: biochemical
T1 construct: 100 nM 1b (BK) NS5BΔ21
Description: HCV polymerase reactions were carried out using a modified method of Howe et al., Antimicrobial Agents and Chemotherapy 2004 48(12): 4813-4821. Reactions contained a final concentration of, 0.5% DMSO, 100 nM 1b (BK) NS5BΔ21, 20 mM Tris-HCl pH 7.5, 5 mM MgCl2, 5 mM MnCl2, 3 mM DTT, 0.05% BSA, 0.2 U/μL RNasin, 10 μg/mL Poly(rC) template, GTP (at Km) and 0.05 μCi/μL ^33P-GTP in a total reaction volume of 50 μL. Compounds were tested in a three fold dilution series, for example starting from 50 μM. Reactions were initiated with the addition of GTP and terminated after […] with 50 μL ice cold 0.2 M EDTA. Terminated reactions were transferred to DEAE 96-well filter plates, unincorporated nucleotides washed from the filters and 50 μL scintillation fluid added prior to reading on a scintillation counter. The compound concentration that reduced ^33P-GTP incorporation by 50% (IC50) was calculated using non-linear regression.

[2] = test system: genotype 1b (Con 1) subgenomic replicon cell line; assay: HCV replicon assay, genotype 1b, Renilla luciferase reporter; type: cell-based; details: Hepatitis C virus; 72 hours incubation, Renilla luciferase activity
Description: A genotype 1b (Con 1) subgenomic replicon cell line based on Blight et al., Science 2000 290: 1972-1974, modified to express a Renilla luciferase reporter gene was used to assess antiviral activity of test compounds. Cell cultures were maintained in a sub-confluent state in DMEM with glutamine, 10% heat-inactivated foetal bovine serum (FBS) and G418 (Geneticin®).
For assay, cells were seeded at a density of 7000 cells/well into 96 well tissue culture trays in culture media lacking G418. Compounds were tested in a three fold dilution series, for example starting from 50 uM. After 72 hours incubation at 37° C. and 5% CO2, Renilla luciferase activity was quantified via the Promega Renilla Luciferase or Renilla-Glo™ Luciferase Assay Systems (Promega corporation. The same method was employed for replicon assays using subgenomic genotype 1a (H77) and 2a (JFH-1) replicon cell lines with a seeding cell density of 5000 cells/well for the 2a cell lines.
The compound concentration that reduced luciferase activity by 50% (EC50) was calculated using non-linear regression.

[3] = read-out: solubility ranges at pH 6.5

T1 sequence (P26663 2420-2989, stated change not applied): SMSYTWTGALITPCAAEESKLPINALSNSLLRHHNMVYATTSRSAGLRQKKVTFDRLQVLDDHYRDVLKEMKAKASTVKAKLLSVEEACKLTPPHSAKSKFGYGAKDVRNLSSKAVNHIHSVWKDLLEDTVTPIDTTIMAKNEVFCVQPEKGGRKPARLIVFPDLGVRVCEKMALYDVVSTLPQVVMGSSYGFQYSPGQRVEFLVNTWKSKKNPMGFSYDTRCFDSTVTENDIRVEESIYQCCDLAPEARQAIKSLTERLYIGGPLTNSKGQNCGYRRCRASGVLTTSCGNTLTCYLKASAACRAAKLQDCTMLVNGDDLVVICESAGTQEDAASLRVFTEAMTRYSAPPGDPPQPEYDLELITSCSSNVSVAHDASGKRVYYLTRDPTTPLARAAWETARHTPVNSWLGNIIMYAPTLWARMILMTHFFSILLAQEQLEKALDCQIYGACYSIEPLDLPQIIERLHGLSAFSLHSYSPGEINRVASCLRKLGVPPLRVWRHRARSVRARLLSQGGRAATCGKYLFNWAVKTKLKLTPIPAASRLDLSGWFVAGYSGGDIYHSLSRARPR

Compound	solubility at 30 min [1, 3] [µg/mL]	IC50 (1b (BK) NS5BΔ21) [nM]	EC50 [2] [nM]	solubility at 30 min ([1]; read-out: Solubility at pH 6.5) [µg/mL]
CNC(=O)c1c2cc(C3CC3)c(N(CCC3COC3C)S(C)(=O)=O)cc2nn1-c1ccc(Cl)cc1 (centres unmarked) [Compound 9, 2-(4-Chlorophenyl)-5-cyclopropyl-N-methyl-6-[{2[-2-methyloxetan-3-yl]ethyl}(methylsulfonyl)amino]-2H-indazole-3-carboxamide]	25 to 50 (≈ 48.4 to 96.7 µM)	–	–	–
CNC(=O)c1c2cc(C3CC3)c(N(CCC3COC3)S(C)(=O)=O)cc2nn1-c1ccc(Cl)cc1 [Compound 10, 2-(4-chlorophenyl)-5-cyclopropyl-N-methyl-6-{(methylsulfonyl)[2-(oxetan-3-yl)ethyl]amino}-2H-indazole-3-carboxamide]	–	< 100	< 100	–
CNC(=O)c1c2cc(C3CC3)c(N(CCC3CCOCC3)S(C)(=O)=O)cc2nn1-c1ccc(Cl)cc1 [D, reference compound]	–	–	–	< 1.6
CNC(=O)c1c2cc(C3CC3)c(N(CC3CCOC3)S(C)(=O)=O)cc2nn1-c1ccc(Cl)cc1 (centres unmarked) [C, reference compound]	–	–	–	< 1.6
CNC(=O)c1c2cc(C3CC3)c(N(CCC3(C)COC3)S(C)(=O)=O)cc2nn1-c1ccc(Cl)cc1 [Compound 11, 2-(4-chlorophenyl)-5-cyclopropyl-N-methyl-6-{[2-(3-methyloxetan-3-yl)ethyl](methylsulfonyl)amino}-2H-indazole-3-carboxamide]	–	< 100	< 100	–
CNC(=O)c1c2cc(C3CC3)c(N(CCC3CN(C)C3)S(C)(=O)=O)cc2nn1-c1ccc(Cl)cc1 [Compound 7, 2-(4-chlorophenyl)-5-cyclopropyl-N-methyl-6-{[2-(1-methylazetidin-3-yl)ethyl](methylsulfonyl)amino}-2H-indazole-3-carboxamide]	–	100 to 490	100 to 490	–
CNC(=O)c1c2cc(C3CC3)c(N(CCN3CC(O)C3)S(C)(=O)=O)cc2nn1-c1ccc(Cl)cc1 [Compound 22, 2-(4-chlorophenyl)-5-cyclopropyl-6-[2-(3-hydroxyazetidin-1-yl)ethyl-methylsulfonyl-amino]-N-methyl-indazole-3-carboxamide]	–	500 to 990	100 to 490	–
CNC(=O)c1c2cc(C3CC3)c(N(CC3(C)COC3)S(C)(=O)=O)cc2nn1-c1ccc(Cl)cc1 [Compound 12, 2-(4-chlorophenyl)-5-cyclopropyl-N-methyl-6-{[(3-methyloxetan-3-yl)methyl](methylsulfonyl)amino}-2H-indazole-3-carboxamide]	–	1000 to 10000	1000 to 10000	–
CNC(=O)c1c2cc(C3CC3)c(N(CCC3(C(C)C)COC3)S(C)(=O)=O)cc2nn1-c1ccc(Cl)cc1 [Compound 16, 2-(4-chlorophenyl)-5-cyclopropyl-N-methyl-6-[(methylsulfonyl) {2-[3-(propan-2-yl)oxetan-3-yl]ethyl}amino]-2H-indazole-3-carboxamide]	–	< 100	< 100	–
CNC(=O)c1c2cc(C3CC3)c(N(CCC3COC3)S(C)(=O)=O)cc2nn1-c1ccc(C)cn1 [Compound 5, 5-cyclopropyl-N-methyl-2-(5-methylpyridin-2-yl)-6-{(methylsulfonyl)[2-(oxetan-3-yl)ethyl]amino}-2H-indazole-3-carboxamide]	–	500 to 990	–	–
CNC(=O)c1c2cc(C3CC3)c(N(CCC3(C)COC3)S(C)(=O)=O)cc2nn1-c1ccc(C)cn1 [Compound 21, 5-cyclopropyl-N-methyl-6-{[2-(3-methyloxetan-3-yl)ethyl](methylsulfonyl)amino}-2-(5-methylpyridin-2-yl)-2H-indazole-3-carboxamide]	> 100	–	–	–
CNC(=O)c1c2cc(C3CC3)c(N(CCCC3CCO3)S(C)(=O)=O)cc2nn1-c1ccc(Cl)cc1 (centres unmarked) [Compound 4, 2-(4-chlorophenyl)-5-cyclopropyl-N-methyl-6-{(methylsulfonyl)[3-(oxetan-2-yl)propyl]amino}-2H-indazole-3-carboxamide]	–	< 100	< 100	–
CNC(=O)c1c2cc(C3CC3)c(N(CC3CC3)S(C)(=O)=O)cc2nn1-c1ccc(Cl)cc1 [B, reference compound]	–	–	–	3.1 to 6.3 (≈ 6.55 to 13.3 µM)
CNC(=O)c1c2cc(C3CC3)c(N(CCC3(OC)COC3)S(C)(=O)=O)cc2nn1-c1ccc(C)cn1 [Compound 28, 5-cyclopropyl-6-[2-(3-methoxyoxetan-3-yl)ethyl-methylsulfonyl-amino]-N-methyl-2-(5-methyl-2-pyridyl)indazole-3-carboxamide]	50 to 100 (≈ 97.3 to 195 µM)	–	–	–
CNC(=O)c1c2cc(C3CC3)c(N(CCC3(OC)CN(C(=O)OC(C)(C)C)C3)S(C)(=O)=O)cc2nn1-c1ccc(Cl)cc1 [Compound 27, tert-butyl 3-[2-[[2-(4-chlorophenyl)-5-cyclopropyl-3-(methylcarbamoyl)indazol-6-yl]-methylsulfonyl-amino]ethyl]-3-methoxy-azetidine-1-carboxylate]	–	500 to 990	< 100	–
CNC(=O)c1c2cc(C3CC3)c(N(CCC3(CNC(=O)OC(C)(C)C)COC3)S(C)(=O)=O)cc2nn1-c1ccc(C)cn1 [Compound 35, tert-butyl N-[[3-[2-[[5-cyclopropyl-3-(methylcarbamoyl)-2-(5-methyl-2-pyridyl)indazol-6-yl]-methylsulfonyl-amino]ethyl]oxetan-3-yl]methyl]carbamate]	12.5 to 25 (≈ 20.4 to 40.8 µM)	–	1000 to 10000	–
CNC(=O)c1c2cc(C3CC3)c(N(CCC3CCO3)S(C)(=O)=O)cc2nn1-c1ccc(Cl)cc1 (centres unmarked) [Compound 13, 2-(4-chlorophenyl)-5-cyclopropyl-N-methyl-6-{(methylsulfonyl)[2-(oxetan-2-yl)ethyl]amino}-2H-indazole-3-carboxamide]	–	100 to 490	< 100	–
CNC(=O)c1c2cc(C3CC3)c(N(CCC3COC3C)S(C)(=O)=O)cc2nn1-c1ccc(Cl)cc1 (centres unmarked) [Compound 31, 2-(4-chlorophenyl)-5-cyclopropyl-N-methyl-6-[2-[-2-methyloxetan-3-yl]ethyl-methylsulfonyl-amino]indazole-3-carboxamide]	–	100 to 490	< 100	–
CNC(=O)c1c2cc(C3CC3)c(N(CC3CCC3)S(C)(=O)=O)cc2nn1-c1ccc(Cl)cc1 [A, reference compound]	–	–	–	1.6 to 3.1 (≈ 3.29 to 6.37 µM)
CNC(=O)c1c2cc(C3CC3)c(N(CCC3CN(C(=O)OC(C)(C)C)C3)S(C)(=O)=O)cc2nn1-c1ccc(C)cn1 [Compound 24, tert-butyl 3-[2-[[5-cyclopropyl-3-(methylcarbamoyl)-2-(5-methyl-2-pyridyl)indazol-6-yl]-methylsulfonyl-amino]ethyl]azetidine-1-carboxylate]	12.5 to 25 (≈ 21.5 to 42.9 µM)	–	–	–
CNC(=O)c1c2cc(C3CC3)c(N(CCC3CNC3)S(C)(=O)=O)cc2nn1-c1ccc(Cl)cc1 [Compound 6, 6-{[2-(Azetidin-3-yl)ethyl](methylsulfonyl)amino}-2-(4-chlorophenyl)-5-cyclopropyl-N-methyl-2H-indazole-3-carboxamide]	–	100 to 490	1000 to 10000	–
CNC(=O)c1c2cc(C3CC3)c(N(CC(C)C3COC3)S(C)(=O)=O)cc2nn1-c1ccc(Cl)cc1 (centres unmarked) [Compound 15, 2-(4-chlorophenyl)-5-cyclopropyl-N-methyl-6-{(methylsulfonyl) [2-(oxetan-3-yl)propyl]amino}-2H-indazole-3-carboxamide]	–	100 to 490	500 to 990	–
CNC(=O)c1c2cc(C3CC3)c(N(CCC3CN(C(=O)OC(C)(C)C)C3)S(C)(=O)=O)cc2nn1-c1ccc(Cl)cc1 [Compound 19, tert-butyl 3-(2-{[2-(4-chlorophenyl)-5-cyclopropyl-3-(methylcarbamoyl)-2H-indazol-6-yl](methylsulfonyl)amino}ethyl)azetidine-1-carboxylate]	–	100 to 490	< 100	–
CNC(=O)c1c2cc(C3CC3)c(N(CCC3COC3C)S(C)(=O)=O)cc2nn1-c1ccc(C)cn1 (centres unmarked) [Compound 20, 5-cyclopropyl-N-methyl-6-{[2-(2-methyloxetan-3-yl)ethyl](methylsulfonyl)amino}-2-(5-methylpyridin-2-yl)-2H-indazole-3-carboxamide]	12.5 to 25 (≈ 25.1 to 50.2 µM)	–	–	–
